The results in this text go back to patent US11845760B2, “PRMT5 inhibitors” (AMGEN INC., priority 2020, dated 2023).

In test [1] the test system is HCT116 MTAP null cells. Nature of the test: HCT116 MTAP null cell line proliferation (CellTiter-Glo cell viability, 6 days). The test is classed as cell-based. The following applies: HCT116-MTAP null, 144 h, HCT116 MTAP null cells, 6 days of treatment, CellTiter-Glo cell viability; read-out: HCT-116 MTAP null IC50. As to the method:
(§1) To assess selective anti-proliferative activity of compounds of the invention in cells that have loss expression of MTAP, an HCT-116 isogenic cell line pair was utilized where one cell line was engineered to genetically knockout both MTAP alleles. Cell viability was then assessed in both the parent HCT-116 cell line and the MTAP null cell line after 6 days of treatment with compounds of the present invention. Selective anti-proliferative activity in the MTAP null cell line indicates MTA-cooperative inhibition of PRMT5 and ability to inhibit growth of cancer cells that have loss of MTAP.
(§2) HCT116 MTAP null and WT cells were seeded in 96-well tissue culture plates in RPMI 1640 media+10% fetal bovine serum. Plates were incubated overnight at 37° C. and 5% CO2. Cells were then treated with an 8- or 9-point serial dilution of compound, using a top concentration of 1, or 10 μM, 1:3 serial dilution steps and, a DMSO-only control. Cells were incubated in the presence of drug for 6 days. Effects on cell viability were measured with the CellTiter-Glo® Luminescent Cell Viability Assay (Promega) per manufacturer's recommendation. Assay plates were read on an EnVision™ Multilabel Reader using the Ultra-Sensitive luminescence module. IC50 values were calculated with GraphPad Prism v 5.01 using symmetrical sigmoidal dose-response least squares fit with Hill slope fixed to −1 and top constrain to 100% or GeneData Screener using a 4-parameter logistic model to fit dose response curves.
(§3) Alternatively, compounds could be assayed with a 384 well plate format:
(§4) Compounds were pre-spotted into 384 well plates with a 22-point serial dilution of compound, using a top concentration of 10 or 50 μM, 1:2 serial dilution steps and, a DMSO-only control. HCT116 MTAP null and WT cells were then seeded as above and after 6 days effects on cell viability were measured with the CellTiter-Glo® Luminescent Cell Viability Assay (Promega). Assay plates were read as above and IC50 values were calculated with GeneData Screener using a 4-parameter logistic model to fit dose response curves. The reported IC50 represents the value where the curve transits 50% of control.

Test [2] deals with HCT116 WT cells. Put plainly: HCT116 WT cell line proliferation (CellTiter-Glo cell viability, 6 days). The following applies: Homo sapiens, HCT-116, 144 h, HCT116 WT (parent) cells, 6 days of treatment, CellTiter-Glo cell viability; read-out: HCT-116 WT IC50. The test is classed as cell-based. As to the method: as §1, §2, §3, §4

Each structure is given as a SMILES string.

Take `C[C@H]1COC[C@@H](c2ccc(C(F)(F)F)cn2)N1C(=O)c1cc2c3c(c(N)nc2cc1Cl)COC3` (racemic) [Example 301, (4-amino-7-chloro-1,3-dihydrofuro[3,4-c]quinolin-8-yl)((3R,5S)-3-methyl-5-(5-(trifluoromethyl)-2-pyridinyl)-4-morpholinyl)methanone and (4-amino-7-chloro-1,3-dihydrofuro[3,4-c]quinolin-8-yl)((3S,5R)-3-methyl-5-(5-(trifluoromethyl)-2-pyridinyl)-4-morpholinyl)methanone]: the IC50 in test [1] came out at 0.006 µM; in test [2], 0.06 µM.

Regarding `C[C@H]1COC[C@@H](c2ccc(C(F)(F)F)nc2)N1C(=O)c1cc2c3c(c(N)nc2cc1Cl)COC3` (racemic) [Example 302, (4-amino-7-chloro-1,3-dihydrofuro[3,4-c]quinolin-8-yl)((3R,5S)-3-methyl-5-(6-(trifluoromethyl)-3-pyridinyl)-4-morpholinyl)methanone and (4-amino-7-chloro-1,3-dihydrofuro[3,4-c]quinolin-8-yl)((3S,5R)-3-methyl-5-(6-(trifluoromethyl)-3-pyridinyl)-4-morpholinyl)methanone], the results for the concentration for half-maximal inhibition (IC50) in test [1] and in test [2] were 0.011 µM and 0.167 µM, respectively.

On to `C[C@H]1COC[C@@H](c2ccc(C(F)(F)F)nc2)N1C(=O)c1ccc2nc(N)c3c(c2c1)COC3` (racemic) [Example 303, (4-amino-1,3-dihydrofuro[3,4-c]quinolin-8-yl)((3R,5S)-3-methyl-5-(6-(trifluoromethyl)-3-pyridinyl)-4-morpholinyl)methanone and (4-amino-1,3-dihydrofuro[3,4-c]quinolin-8-yl)((3S,5R)-3-methyl-5-(6-(trifluoromethyl)-3-pyridinyl)-4-morpholinyl)methanone], for which the results for the IC50 in test [1] and in test [2] were 0.134 µM and 2.86 µM, respectively.

In the case of `C[C@H]1OCc2c1c(N)nc1ccc(C(=O)N3[C@@H](C)COC[C@H]3c3ccc(C(F)(F)F)nc3)cc21` (racemic) [Example 305, ((3R)-4-amino-3-methyl-1,3-dihydrofuro[3,4-c]quinolin-8-yl)((3R,5S)-3-methyl-5-(6-(trifluoromethyl)-3-pyridinyl)-4-morpholinyl)methanone and ((3R)-4-amino-3-methyl-1,3-dihydrofuro[3,4-c]quinolin-8-yl)((3S,5R)-3-methyl-5-(6-(trifluoromethyl)-3-pyridinyl)-4-morpholinyl)methanone], the IC50 in test [1] worked out at 0.049 µM; in test [2] it was 0.611 µM.

Regarding `CC(C)Oc1ccc([C@@H]2COC[C@H](C)N2C(=O)c2cc3c4c(c(N)nc3cn2)COC4)cn1` (racemic) [Example 306, (4-amino-1,3-dihydrofuro[3,4-c][1,7]naphthyridin-8-yl)((3R,5S)-3-methyl-5-(6-(2-propanyloxy)-3-pyridinyl)-4-morpholinyl)methanone and (4-amino-1,3-dihydrofuro[3,4-c][1,7]naphthyridin-8-yl)((3S,5R)-3-methyl-5-(6-(2-propanyloxy)-3-pyridinyl)-4-morpholinyl)methanone], the IC50 in test [1] was 0.096 µM; in test [2], 2.13 µM.

Turning to `C[C@H]1OCc2c1c(N)nc1cnc(C(=O)N3[C@@H](C)COC[C@H]3c3ccc(C(F)(F)F)cn3)cc21` (racemic) [Example 307, ((3R)-4-amino-3-methyl-1,3-dihydrofuro[3,4-c][1,7]naphthyridin-8-yl)((3R,5S)-3-methyl-5-(5-(trifluoromethyl)-2-pyridinyl)-4-morpholinyl)methanone and ((3R)-4-amino-3-methyl-1,3-dihydrofuro[3,4-c][1,7]naphthyridin-8-yl)((3S,5R)-3-methyl-5-(5-(trifluoromethyl)-2-pyridinyl)-4-morpholinyl)methanone], the IC50 in test [1] stood at 0.022 µM; in test [2] it was 0.492 µM.
